Laboratory results: the supplement of paper PMC10307832

Experiments:
Experiment in all cases: relative viability (nuclei count vs DMSO), 5 days (fraction); higher = more cells survive
HCC-15 = test system: HCC-15
Method in brief: (§1)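 Lung cancer cell lines in 1536-well plates got either a single drug or a fixed anchor-drug dose together with five library-drug doses (not always all listed) in √10 steps, by pin tool, on the day after seeding. Nuclei were counted after 5 days, and relative viability is the treated-to-vehicle ratio of nuclei counts. Values are medians of duplicate plates.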

SK-MES-1 = test system: SK-MES-1
Method in brief: as §1

NCI-H1755 = test system: NCI-H1755
Method in brief: as §1

NCI-H2347 = test system: NCI-H2347
Method in brief: as §1

NCI-H2009 = test system: NCI-H2009
Method in brief: as §1

HARA = test system: HARA
Method in brief: as §1

COR-L 105 = test system: COR-L 105
Method in brief: as §1

NCI-H2228 = test system: NCI-H2228
Method in brief: as §1

COR-L23 = test system: COR-L23
Method in brief: as §1

NCI-H1793 = test system: NCI-H1793
Method in brief: as §1

NCI-H1355 = test system: NCI-H1355
Method in brief: as §1

NCI-H1993 = test system: NCI-H1993
Method in brief: as §1

EKVX = test system: EKVX
Method in brief: as §1

PC-14 = test system: PC-14
Method in brief: as §1

UMC-11 = test system: UMC-11
Method in brief: as §1

NCI-H1734 = test system: NCI-H1734
Method in brief: as §1

NCI-H358 = test system: NCI-H358
Method in brief: as §1

HOP-62 = test system: HOP-62
Method in brief: as §1

NCI-H1395 = test system: NCI-H1395
Method in brief: as §1

NCI-H838 = test system: NCI-H838
Method in brief: as §1

NCI-H647 = test system: NCI-H647
Method in brief: as §1

## Oc1nc(-c2ccc(C(F)(F)F)cc2)nc2c1CSCC2 [XAV939] + C[C@]1(O)C[C@@H](c2nc(-c3ccc4ccc(-c5ccccc5)nc4c3)c3c(N)nccn32)C1 [Linsitinib] (partner 1 µM)
HCC-15; first compound 0.08 µM
  relative viability: 0.923
HCC-15; first compound 0.253 µM
  relative viability: 0.851
HCC-15; first compound 0.8 µM
  relative viability: 0.859
HCC-15; first compound 2.53 µM
  relative viability: 0.848
SK-MES-1; first compound 0.08 µM
  relative viability: 1.1
SK-MES-1; first compound 0.253 µM
  relative viability: 0.896
SK-MES-1; first compound 0.8 µM
  relative viability: 1.03
SK-MES-1; first compound 2.53 µM
  relative viability: 0.965
NCI-H1755; first compound 0.08 µM
  relative viability: 0.975
NCI-H1755; first compound 0.253 µM
  relative viability: 0.865
NCI-H1755; first compound 0.8 µM
  relative viability: 0.969
NCI-H1755; first compound 2.53 µM
  relative viability: 0.921
NCI-H2347; first compound 0.08 µM
  relative viability: 1.08
NCI-H2347; first compound 0.253 µM
  relative viability: 0.997
NCI-H2347; first compound 0.8 µM
  relative viability: 0.931
NCI-H2347; first compound 2.53 µM
  relative viability: 1
NCI-H2009; first compound 0.08 µM
  relative viability: 1.19
NCI-H2009; first compound 0.253 µM
  relative viability: 0.904
NCI-H2009; first compound 0.8 µM
  relative viability: 1.17
NCI-H2009; first compound 2.53 µM
  relative viability: 1.09
HARA; first compound 0.08 µM
  relative viability: 1.25
HARA; first compound 0.253 µM
  relative viability: 0.414
HARA; first compound 0.8 µM
  relative viability: 0.779
HARA; first compound 2.53 µM
  relative viability: 0.956
COR-L 105; first compound 0.08 µM
  relative viability: 1
COR-L 105; first compound 0.253 µM
  relative viability: 0.98
COR-L 105; first compound 0.8 µM
  relative viability: 0.868
COR-L 105; first compound 2.53 µM
  relative viability: 0.561
NCI-H2228; first compound 0.08 µM
  relative viability: 0.684
NCI-H2228; first compound 0.253 µM
  relative viability: 0.683
NCI-H2228; first compound 0.8 µM
  relative viability: 0.81
NCI-H2228; first compound 2.53 µM
  relative viability: 0.551
COR-L23; first compound 0.08 µM
  relative viability: 0.962
COR-L23; first compound 0.253 µM
  relative viability: 0.785
COR-L23; first compound 0.8 µM
  relative viability: 0.969
COR-L23; first compound 2.53 µM
  relative viability: 0.809
NCI-H1793; first compound 0.08 µM
  relative viability: 0.964
NCI-H1793; first compound 0.253 µM
  relative viability: 0.709
NCI-H1793; first compound 0.8 µM
  relative viability: 0.774
NCI-H1793; first compound 2.53 µM
  relative viability: 0.719
NCI-H1355; first compound 0.08 µM
  relative viability: 0.867
NCI-H1355; first compound 0.253 µM
  relative viability: 0.783
NCI-H1355; first compound 0.8 µM
  relative viability: 0.82
NCI-H1355; first compound 2.53 µM
  relative viability: 0.666
NCI-H1993; first compound 0.8 µM
  relative viability: 0.754
NCI-H1993; first compound 2.53 µM
  relative viability: 0.719
EKVX; first compound 0.08 µM
  relative viability: 1.07
EKVX; first compound 0.253 µM
  relative viability: 0.776
EKVX; first compound 0.8 µM
  relative viability: 0.831
EKVX; first compound 2.53 µM
  relative viability: 0.623
PC-14; first compound 0.08 µM
  relative viability: 0.954
PC-14; first compound 0.253 µM
  relative viability: 0.831
PC-14; first compound 0.8 µM
  relative viability: 1.04
PC-14; first compound 2.53 µM
  relative viability: 0.844
UMC-11; first compound 0.08 µM
  relative viability: 1.25
UMC-11; first compound 0.8 µM
  relative viability: 0.952
UMC-11; first compound 2.53 µM
  relative viability: 0.854
NCI-H1734; first compound 0.08 µM
  relative viability: 0.841
NCI-H1734; first compound 0.253 µM
  relative viability: 0.853
NCI-H1734; first compound 0.8 µM
  relative viability: 0.961
NCI-H1734; first compound 2.53 µM
  relative viability: 0.709
NCI-H358; first compound 0.08 µM
  relative viability: 0.832
NCI-H358; first compound 0.253 µM
  relative viability: 0.551
NCI-H358; first compound 0.8 µM
  relative viability: 0.655
NCI-H358; first compound 2.53 µM
  relative viability: 0.558
HOP-62; first compound 0.08 µM
  relative viability: 1.01
HOP-62; first compound 0.253 µM
  relative viability: 0.882
HOP-62; first compound 0.8 µM
  relative viability: 0.954
HOP-62; first compound 2.53 µM
  relative viability: 0.939
NCI-H1395; first compound 0.08 µM
  relative viability: 1.09
NCI-H1395; first compound 0.253 µM
  relative viability: 1.04
NCI-H1395; first compound 0.8 µM
  relative viability: 1.11
NCI-H1395; first compound 2.53 µM
  relative viability: 0.974
NCI-H838; first compound 0.08 µM
  relative viability: 1.02
NCI-H838; first compound 0.253 µM
  relative viability: 0.901
NCI-H838; first compound 0.8 µM
  relative viability: 0.839
NCI-H838; first compound 2.53 µM
  relative viability: 0.719
NCI-H647; first compound 0.08 µM
  relative viability: 1.13
NCI-H647; first compound 0.253 µM
  relative viability: 0.864
NCI-H647; first compound 0.8 µM
  relative viability: 1.06
NCI-H647; first compound 2.53 µM
  relative viability: 1.02
